Assays:
GBA = test: DNA microarray, GBA expression in fibroblasts exposed to genistein; assay type: cell-based, human; details: for GBA fold change Average: 48 h vs DMSO
Protocol: (§1) The experiments were conducted to characterise the transcriptomic profile of human fibroblast cells exposed to genistein, and in particular to determine the expression of genes encoding lysosomal enzymes involved in metabolism (i.e. synthesis and degradation) of organic substances. The absence or deficiency of these enzymes' activity is responsible for occurrence of various lysosomal storage diseases (LSD) (including MPS). The tested hypothesis assumed that genistein influences the expression of many genes, among which there are genes coding for enzymes required in metabolism of compounds, which are pathologically stored in LSD. The results provide important information regarding genistein action on the molecular level within the range of gene expression modulation by this substance. The experiment was conducted in biological quintuplicates. Human dermal fibroblasts (HDFa) were exposed in vitro for 1, 24 or 48 hours to: 30, 60 or 100 μM of genistein; 0.05% DMSO (K1); or were untreated (control cells) (K2), and total RNA was isolated and analysed.
(§2) Fibroblast cells were grown in Dulbecco (DMEM) medium supplemented with 10% fetal bovine serum (FBS) with the addition of 1% antibiotics and anti-fungal agents at 37° C. in humidified atmosphere of 5% CO2, until the required confluency was obtained.
(§3) To determine the effect of tested compound on the transcriptom of the fibroblast cells, the growth medium was replaced with fresh medium, either non-supplemented (0.05% DMSO), or containing genistein (30, 60 or 100 μM, in 0.05% DMSO). The exposure was done for 1, 24 or 48 hours.
(§4) Total RNA was isolated from fibroblasts using High Pure RNA Isolation Kit according to the protocol and then it was quantitatively evaluated using Quant-It™ RiboGreen® Assay Kit.
(§5) Biotinylated cRNA was prepared using Ambion Total PrepAmp Kit for Illumina arrays.
(§6) Standard hybridization and quantitative image analysis procedures—Illumina hybridization protocol and Illumina scanning protocol, were used.
(§7) Processing of the results was done during data definition, including: background correction (using background subtraction method), normalization (using quantile normalization algorithm with Illumina GenomeStudio software package: gene expression module version 1.9.0) and summarization (using method, which sums the values of signal intensities from a set of probes).

SMPD1 = test: DNA microarray, SMPD1 expression in fibroblasts exposed to genistein; assay type: cell-based, human; details: for SMPD1 fold change Average: 48 h vs DMSO
Protocol: as §1, §2, §3, §4, §5, §6, §7

MCOLN1 = test: DNA microarray, MCOLN1 expression in fibroblasts exposed to genistein; assay type: cell-based, human; details: for MCOLN1 fold change Average: 48 h vs DMSO
Protocol: as §1, §2, §3, §4, §5, §6, §7

[1] = tested on: fibroblasts from patients with MPS type I, IIIA and IIIB; details: cited from earlier work
GNS = test: DNA microarray, GNS expression in fibroblasts exposed to genistein; assay type: cell-based, human; details: for GNS fold change Average: 48 h vs DMSO
Protocol: as §1, §2, §3, §4, §5, §6, §7

GM2A = test: DNA microarray, GM2A expression in fibroblasts exposed to genistein; assay type: cell-based, human; details: for GM2A fold change Average: 48 h vs DMSO
Protocol: as §1, §2, §3, §4, §5, §6, §7

FVT1 = test: DNA microarray, FVT1 expression in fibroblasts exposed to genistein; assay type: cell-based, human; details: for FVT1 fold change Average: 48 h vs DMSO
Protocol: as §1, §2, §3, §4, §5, §6, §7

ARSA = test: DNA microarray, ARSA expression in fibroblasts exposed to genistein; assay type: cell-based, human; details: for ARSA fold change Average: 48 h vs DMSO
Protocol: as §1, §2, §3, §4, §5, §6, §7

GAPDH = test: DNA microarray, GAPDH reference gene expression in fibroblasts exposed to genistein; assay type: cell-based, human
Protocol: as §1, §2, §3, §4, §5, §6, §7

In the case of `O=c1c(-c2ccc(O)cc2)coc2cc(O)cc(O)c12` [genistein, 4′,5,7-trihydroxy-3-phenylchromen-4-one], the “GBA fold change Average” value (GBA; 60 μM) was 1.467 fold change, the “GBA fold change Average 1h100/1hK1” value (GBA; 100 μM, 1 h vs 0.05% DMSO) was 0.9469 fold change and the “GBA fold change Average” value (GBA; 100 μM) was 1.606 fold change. For the same molecule, the “SMPD1 fold change Average 1h30/1hK1” value (SMPD1; 30 μM, 1 h vs 0.05% DMSO) was 1.0078 fold change, the “SMPD1 fold change Average” value (SMPD1; 30 μM) was 1.2419 fold change and the “SMPD1 fold change Average 1h60/1hK1” value (SMPD1; 60 μM, 1 h vs 0.05% DMSO) was 0.9831 fold change. For the same molecule, the “SMPD1 fold change Average” value (SMPD1; 60 μM) was 1.457 fold change, the “SMPD1 fold change Average 1h100/1hK1” value (SMPD1; 100 μM, 1 h vs 0.05% DMSO) was 1.012 fold change and the “SMPD1 fold change Average” value (SMPD1; 100 μM) was 1.673 fold change. The “MCOLN1 fold change Average 1h30/1hK1” value (MCOLN1; 30 μM, 1 h vs 0.05% DMSO) was 1.065 fold change, the “MCOLN1 fold change Average 1h60/1hK1” value (MCOLN1; 60 μM, 1 h vs 0.05% DMSO) was 1.038 fold change and the “MCOLN1 fold change Average” value (MCOLN1; 60 μM) was 1.439 fold change. For the same molecule, the “MCOLN1 fold change Average 1h100/1hK1” value (MCOLN1; 100 μM, 1 h vs 0.05% DMSO) was 1.013 fold change, the “MCOLN1 fold change Average” value (MCOLN1; 100 μM) was 1.482 fold change and the GAG synthesis [1] was “reduces levels of GAG synthesis”. The “storage depositions in cells” value [1] was “causes disappearance of the storage depositions in cells”, the “GNS fold change Average 1h30/1hK1” value (GNS; 30 μM, 1 h vs 0.05% DMSO) was 1.0062 fold change and the “GNS fold change Average” value (GNS; 30 μM) was 1.2473 fold change. For the same molecule, the “GNS fold change Average 1h60/1hK1” value (GNS; 60 μM, 1 h vs 0.05% DMSO) was 1.022 fold change, the “GNS fold change Average” value (GNS; 60 μM) was 1.495 fold change and the “GNS fold change Average 1h100/1hK1” value (GNS; 100 μM, 1 h vs 0.05% DMSO) was 1.0219 fold change. The “GNS fold change Average” value (GNS; 100 μM) was 1.418 fold change, the “GM2A fold change Average 1h30/1hK1” value (GM2A; 30 μM, 1 h vs 0.05% DMSO) was 1.5655 fold change and the “GM2A fold change Average” value (GM2A; 30 μM) was 1.0452 fold change. The “GM2A fold change Average 1h60/1hK1” value (GM2A; 60 μM, 1 h vs 0.05% DMSO) was 1.181 fold change, the “GM2A fold change Average” value (GM2A; 60 μM) was 1.612 fold change and the “GM2A fold change Average 1h100/1hK1” value (GM2A; 100 μM, 1 h vs 0.05% DMSO) was 1.254 fold change. For the same molecule, the “GM2A fold change Average” value (GM2A; 100 μM) was 1.536 fold change, the “FVT1 fold change Average 1h30/1hK1” value (FVT1; 30 μM, 1 h vs 0.05% DMSO) was 1.0953 fold change and the “FVT1 fold change Average” value (FVT1; 30 μM) was 1.2441 fold change. The “FVT1 fold change Average 1h60/1hK1” value (FVT1; 60 μM, 1 h vs 0.05% DMSO) was 1.137 fold change, the “FVT1 fold change Average” value (FVT1; 60 μM) was 1.603 fold change and the “FVT1 fold change Average 1h100/1hK1” value (FVT1; 100 μM, 1 h vs 0.05% DMSO) was 1.035 fold change. For the same molecule, the “FVT1 fold change Average” value (FVT1; 100 μM) was 1.422 fold change, the “ARSA fold change Average 1h30/1hK1” value (ARSA; 30 μM, 1 h vs 0.05% DMSO) was 0.9099 fold change and the “ARSA fold change Average 1h60/1hK1” value (ARSA; 60 μM, 1 h vs 0.05% DMSO) was 0.9092 fold change. The “ARSA fold change Average” value (ARSA; 60 μM) was 1.218 fold change, the “ARSA fold change Average 1h100/1hK1” value (ARSA; 100 μM, 1 h vs 0.05% DMSO) was 0.963 fold change and the “ARSA fold change Average” value (ARSA; 100 μM) was 1.526 fold change. For the same molecule, the “GAPDH fold change Average 1h30/1hK1” value (GAPDH; 30 μM, 1 h vs 0.05% DMSO) was 0.9592 fold change, the “GAPDH fold change Average 24h30/24hK1” value (GAPDH; 30 μM, 24 h vs 0.05% DMSO) was 0.93 fold change and the “GAPDH fold change Average 48h30/48hK1” value (GAPDH; 30 μM, 48 h vs 0.05% DMSO) was 0.9412 fold change. The “GAPDH fold change Average 1h60/1hK1” value (GAPDH; 60 μM, 1 h vs 0.05% DMSO) was 0.9817 fold change, the “GAPDH fold change Average 24h60/24hK1” value (GAPDH; 60 μM, 24 h vs 0.05% DMSO) was 0.8905 fold change and the “GAPDH fold change Average 48h60/48hK1” value (GAPDH; 60 μM, 48 h vs 0.05% DMSO) was 0.8088 fold change. The “GAPDH fold change Average 1h100/1hK1” value (GAPDH; 100 μM, 1 h vs 0.05% DMSO) was 0.9385 fold change, the “GAPDH fold change Average 24h100/24hK1” value (GAPDH; 100 μM, 24 h vs 0.05% DMSO) was 0.9556 fold change and the “GAPDH fold change Average 48h100/48hK1” value (GAPDH; 100 μM, 48 h vs 0.05% DMSO) was 0.8652 fold change.
